The results in this text go back to patent US8466155B2, “Pyrimidines” (Boehringer Ingelheim International GmbH, priority 2009, dated 2013).

In the test the target is T1, PTK2 (Homo sapiens, UniProt Q05397).
T1 construct: purchased Invitrogen PV3832
As to the kind of experiment: PTK2 enzyme test, Assay 2 (DELFIA, PT66 antibody). The test is classed as biochemical. The conditions noted are these: values marked (*), read-out: PTK2 1 h IC50. The text has this:
This test uses active PTK2 enzyme (Invitrogen Code PV3832) and poly-Glu-Tyr (4:1, Sigma P-0275) as the kinase substrate. The kinase activity is detected by means of the phosphorylation of the substrate in a DELFIA™ assay. The phosphorylated substrate is detected with the europium-labelled phosphotyrosine antibody PT66 (Perkin Elmer, No.: AD0040).
In order to determine concentration-activity curves with PTK2-inhibitors the compounds are serially diluted first of all in 100% DMSO and then in kinase dilution buffer (20 mM TRIS/HCl pH 7.5, 0.1 mM EDTA, 0.1 mM EGTA, 0.286 mM sodium orthovanadate, 10% glycerol with the addition of freshly prepared BSA (fraction V, 1 mg/mL) and DTT (1 mM)) and 10 μL of each dilution are dispensed per well in a 96-well microtitre plate (clear U-shaped base plate, Greiner No. 650101) (the inhibitors are tested in duplicates) and mixed with 10 μL/well of PTK2 kinase (0.01 μg/well). PTK2 kinase is diluted accordingly beforehand with kinase dilution buffer. […]
The time-delayed europium fluorescence is then measured in a microtitre plate reader (VICTOR^3, Perkin Elmer). […]
The IC50 values are determined from concentration-activity analyses by iterative calculation using a sigmoid curve analysis algorithm (FIFTY, based on GraphPAD Prism Version 3.03) with a variable Hill coefficient.

Structures are written as SMILES.

T1 sequence (Q05397 whole entry): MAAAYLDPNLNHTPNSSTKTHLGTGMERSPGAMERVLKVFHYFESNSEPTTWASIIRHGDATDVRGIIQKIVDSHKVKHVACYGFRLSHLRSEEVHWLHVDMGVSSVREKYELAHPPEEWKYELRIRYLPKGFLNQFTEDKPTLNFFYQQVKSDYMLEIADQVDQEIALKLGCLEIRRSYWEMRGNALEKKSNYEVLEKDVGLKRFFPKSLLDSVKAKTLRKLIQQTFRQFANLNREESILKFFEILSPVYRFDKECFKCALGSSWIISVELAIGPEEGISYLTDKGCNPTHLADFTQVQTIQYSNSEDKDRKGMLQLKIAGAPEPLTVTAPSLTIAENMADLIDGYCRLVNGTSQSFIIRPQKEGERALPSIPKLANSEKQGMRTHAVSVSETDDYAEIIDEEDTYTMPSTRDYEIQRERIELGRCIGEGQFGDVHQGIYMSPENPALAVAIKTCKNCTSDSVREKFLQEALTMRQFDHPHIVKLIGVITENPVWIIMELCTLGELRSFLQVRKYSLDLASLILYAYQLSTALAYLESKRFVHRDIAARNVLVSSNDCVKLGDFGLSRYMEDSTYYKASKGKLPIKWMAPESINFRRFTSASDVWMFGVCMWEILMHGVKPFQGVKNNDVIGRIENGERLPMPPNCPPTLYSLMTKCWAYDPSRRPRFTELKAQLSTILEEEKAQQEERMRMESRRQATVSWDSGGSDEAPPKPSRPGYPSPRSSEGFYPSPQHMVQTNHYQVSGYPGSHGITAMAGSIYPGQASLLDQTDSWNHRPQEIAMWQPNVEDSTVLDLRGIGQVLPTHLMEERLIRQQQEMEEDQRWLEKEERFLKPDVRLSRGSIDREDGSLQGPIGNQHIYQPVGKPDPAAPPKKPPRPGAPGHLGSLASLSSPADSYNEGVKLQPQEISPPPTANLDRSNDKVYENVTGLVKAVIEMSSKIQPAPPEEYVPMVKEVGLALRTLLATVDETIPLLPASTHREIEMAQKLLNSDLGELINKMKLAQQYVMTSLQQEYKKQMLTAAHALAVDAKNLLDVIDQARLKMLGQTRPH

Turning to `COc1cc(N2CCN(C(C)(C)C)CC2)ccc1Nc1ncc(C(F)(F)F)c(O[C@@H]2Cc3ccccc3[C@H]2N(C)S(C)(=O)=O)n1` [Example 90, N-((1R,2R)-2-{2-[4-(4-tert-butyl-piperazin-1-yl)-2-methoxy-phenylamino]-5-trifluoromethyl-pyrimidin-4-yloxy}-indan-1-yl)-N-methyl-methanesulphonamide], the IC50 is 0.85 nM.
Consider `COc1ccc(C(=O)NC2CCN(C)CC2)cc1Nc1ncc(C(F)(F)F)c(O[C@@H]2Cc3ccccc3[C@H]2N(C)S(C)(=O)=O)n1` [Example 79, 3-{4-[(1R,2R)-1-(methanesulphonyl-methyl-amino)-indan-2-yloxy]-5-trifluoromethyl-pyrimidin-2-ylamino}-4-methoxy-N-(1-methyl-piperidin-4-yl)-benzamide], for which the IC50 came to 0.4 nM.

In general, IC50 refers to the concentration needed to halve the response being measured.
